This is an account of results in US20230145835A1, “Modulators of Alpha-4-beta-7 Integrin and MAdCAM” (48HD Biopharma Inc., priority 2021, published 2023).

Numbered stars: 1 amine (or outer) side, 2 acyl side, 3 side chain; on linkers, the order of the positions; unused ones are H or OH. Bridge positions count the residues as written; N and C are the ends. Square brackets hold non-standard residues; d marks the D form. Peptide text beside a SMILES is read from it. X3 = O=C(/C=N/OCCCCCCOc1cc(C[*:2])cc(C[*:3])c1)[*:1]; X1 = O=C(C=NOCCCCCCOc1cc(C[*:2])cc(C[*:3])c1)[*:1]; tBuAla = CC(C)(C)C[C@H](N)C(=O)O; Nle = CCCC[C@H](N)C(=O)O A value given as a limit tells only on which side of the number the result lay.

One assay addresses T1, rh-integrin α4β7/LPAM-1 (Homo sapiens, UniProt P13612+P26010).
T1 sequence (P13612 34-977 limits assumed): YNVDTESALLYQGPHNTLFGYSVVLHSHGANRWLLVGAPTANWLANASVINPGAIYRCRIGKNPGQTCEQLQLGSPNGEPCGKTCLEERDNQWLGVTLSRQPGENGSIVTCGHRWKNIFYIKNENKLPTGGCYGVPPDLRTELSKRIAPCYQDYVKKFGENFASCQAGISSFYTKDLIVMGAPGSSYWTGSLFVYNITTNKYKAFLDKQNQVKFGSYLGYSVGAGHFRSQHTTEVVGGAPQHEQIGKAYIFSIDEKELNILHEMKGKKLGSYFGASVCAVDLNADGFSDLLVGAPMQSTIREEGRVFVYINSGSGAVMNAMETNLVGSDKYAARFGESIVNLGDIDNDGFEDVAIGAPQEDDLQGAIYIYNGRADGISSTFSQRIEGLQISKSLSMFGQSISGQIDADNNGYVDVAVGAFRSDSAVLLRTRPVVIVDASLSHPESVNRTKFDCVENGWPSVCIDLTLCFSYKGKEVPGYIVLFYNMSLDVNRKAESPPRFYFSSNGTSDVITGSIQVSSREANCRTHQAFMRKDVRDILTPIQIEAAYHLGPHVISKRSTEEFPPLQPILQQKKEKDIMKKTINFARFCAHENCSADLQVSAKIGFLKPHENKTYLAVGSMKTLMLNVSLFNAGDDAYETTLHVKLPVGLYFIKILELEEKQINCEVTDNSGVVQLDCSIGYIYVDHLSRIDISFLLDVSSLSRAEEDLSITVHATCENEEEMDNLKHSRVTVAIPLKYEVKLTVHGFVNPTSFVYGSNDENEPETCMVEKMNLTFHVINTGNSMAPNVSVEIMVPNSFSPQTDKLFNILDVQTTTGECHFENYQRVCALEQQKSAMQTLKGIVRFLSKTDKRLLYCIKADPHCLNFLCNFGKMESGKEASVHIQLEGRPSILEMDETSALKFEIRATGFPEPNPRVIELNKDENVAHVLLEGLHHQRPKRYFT
T1 sequence (P26010 20-723 limits assumed): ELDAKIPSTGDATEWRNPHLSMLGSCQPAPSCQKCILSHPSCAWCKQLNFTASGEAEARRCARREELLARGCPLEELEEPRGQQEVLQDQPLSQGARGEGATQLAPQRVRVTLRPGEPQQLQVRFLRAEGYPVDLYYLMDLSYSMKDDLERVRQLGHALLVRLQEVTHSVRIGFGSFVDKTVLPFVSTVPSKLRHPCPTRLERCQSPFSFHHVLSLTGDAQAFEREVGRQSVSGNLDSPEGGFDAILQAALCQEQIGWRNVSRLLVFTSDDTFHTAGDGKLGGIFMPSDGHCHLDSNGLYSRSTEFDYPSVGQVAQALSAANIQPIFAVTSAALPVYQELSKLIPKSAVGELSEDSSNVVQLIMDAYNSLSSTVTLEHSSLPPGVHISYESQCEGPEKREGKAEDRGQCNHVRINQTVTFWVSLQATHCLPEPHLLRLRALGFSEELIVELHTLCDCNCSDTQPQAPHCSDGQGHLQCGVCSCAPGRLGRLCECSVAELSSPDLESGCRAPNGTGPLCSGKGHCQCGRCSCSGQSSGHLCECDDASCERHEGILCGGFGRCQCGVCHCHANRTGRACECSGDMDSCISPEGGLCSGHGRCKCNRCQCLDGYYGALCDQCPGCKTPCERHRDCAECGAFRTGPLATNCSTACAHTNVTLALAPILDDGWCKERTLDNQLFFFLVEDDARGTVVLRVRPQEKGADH
The assay can be described thus: α4β7-MadCAM Competition ELISA (Example 4). As to conditions: Table 3 Representative compounds; inhibition of MAdCAM binding to coated α4β7; read-out: IC50. It is filed as binding. The procedure:
After washing with wash buffer, 200 μL assay buffer was added to each well and incubated for one hour at 28° C. After another wash with wash buffer, 100 μL of a MAdCAM and peptide mixture in assay buffer was added to each well and incubated for one hour at 28° C., followed by washing with wash buffer.
For the molecule `CCCC[C@@H]1NC(=O)[C@@H]2CCCN2C(=O)[C@@H]2CSCc3cc(cc(c3)OCCCCCCO/N=C/C(=O)N[C@@H](CCCNC(=N)N)C(=O)N2)CSC[C@@H](C(N)=O)NC(=O)[C@H](CCC(=O)O)NC(=O)[C@H](Cc2ccc(O)cc2)NC(=O)[C@@H]2CCCN2C(=O)[C@H](CC(C)(C)C)NC(=O)[C@H](CC(=O)O)NC1=O` [compound 39, TSL6-SRCP{Nle}D {tBuAla}PYEC] (RCP[Nle]D[tBuAla]PYEC-NH2; linker N-2-10 via X3), the IC50 is 1.13 µM.
For `CSCC[C@@H]1NC(=O)[C@@H]2CCCN2C(=O)[C@@H]2CSCc3cc(cc(c3)OCCCCCCO/N=C/C(=O)N[C@@H](CCC(N)=O)C(=O)N2)CSC[C@@H](C(N)=O)NC(=O)[C@H]([C@@H](C)O)NC(=O)[C@@H]2CCCN2C(=O)[C@H](C(C)C)NC(=O)[C@H](CC(=O)O)NC1=O` [compound 28, TSL6- SQCPMDVPTC] (QCPMDVPTC-NH2; linker N-2-9 via X3), the IC50 was 0.672 µM.
On to `CC(C)C[C@@H]1NC(=O)[C@@H]2CCCN2C(=O)[C@H](Cc2c[nH]c3ccccc23)NC(=O)[C@@H]2CCCN2C(=O)[C@@H]2CSCc3cc(cc(c3)OCCCCCCO/N=C/C(=O)N[C@@H](CCC(=O)O)C(=O)N2)CSC[C@@H](C(N)=O)NC(=O)[C@H](CCC(N)=O)NC(=O)[C@@H]2CCCN2C1=O` [compound 105, TSL6- SECPWPLPQC] (ECPWPLPQC-NH2; linker N-2-9 via X3), for which the IC50 is 341 µM.
Still for that read-out and setting: in the case of `CSCC[C@@H]1NC(=O)[C@H](CO)NC(=O)[C@H](CC(=O)O)NC(=O)[C@@H]2CCCN2C(=O)[C@@H]2CSCc3cc(cc(c3)OCCCCCCO/N=C/C(=O)N[C@@H](CC(=O)O)C(=O)N2)CSC[C@@H](C(N)=O)NC(=O)[C@H](CO)NC(=O)[C@H](Cc2cnc[nH]2)NC(=O)[C@H](C)NC1=O` [compound 65, TSL6- SDCPDSMAHSC] (DCPDSMAHSC-NH2; linker N-2-10 via X3) it was 13.8 µM.

Staying with this assay, now noted: competition ELISA, 4 μg/mL α4β7 coated, MAdCAM and peptide mixture, 28° C.; read-out: IC50.
Consider `CC[C@H](C)[C@@H]1NC(=O)[C@H](CC(=O)O)NC(=O)[C@H](CC(C)C)NC(=O)[C@H](CCCCN)NC(=O)[C@@H]2CSCc3cc(cc(c3)OCCCCCCON=CC(=O)N[C@@H](Cc3c[nH]cn3)C(=O)N2)CSC[C@@H](C(=O)O)NC(=O)[C@H](C(C)C)NC(=O)[C@H](Cc2c[nH]c3ccccc23)NC1=O` [SEQ ID NO: 73] (HCKLDIWVC-OH; linker N-2-9 via X1), for which the IC50 was more than 500 µM.
Still for that read-out and setting: in the case of `CC(C)C[C@@H]1NC(=O)[C@@H]2CCCN2C(=O)[C@@H](NC(=O)[C@H](CCCCN)NC(=O)[C@@H](N)CO)CSSC[C@@H](C(=O)O)NC(=O)[C@H](CCC(=O)O)NC(=O)[C@H](Cc2ccc(O)cc2)NC(=O)[C@@H]2CCCN2C(=O)[C@H]([C@@H](C)O)NC(=O)[C@H](CC(=O)O)NC1=O` [SEQ ID NO: 152] (H-SKCPLDTPYEC-OH; disulfide 3-11; N-terminus and C-terminus assumed) it was 0.552 µM; in that of `N=C(N)NCCC[C@@H]1NC(=O)CNC(=O)[C@H](Cc2ccc(O)cc2)NC(=O)[C@H](Cc2c[nH]c3ccccc23)NC(=O)[C@H](Cc2c[nH]cn2)NC(=O)[C@@H]2CSCc3cc(cc(c3)OCCCCCCON=CC(=O)N[C@@H](CCC(N)=O)C(=O)N2)CSC[C@@H](C(=O)O)NC(=O)[C@H](CO)NC1=O` [SEQ ID NO: 19] (QCHWYGRSC-OH; linker N-2-9 via X1), more than 500 µM.

One may read the IC50 as the concentration that gives 50% inhibition.
